Key:
Test in all cases: relative viability (nuclei count vs DMSO), 5 days (fraction); higher = more cells survive
AZ3146 + Dasatinib = compound: CN1CCC(CC1)OC2=CC(=C(C=C2)NC3=NC=C4C(=N3)N(C(=O)N4C)C5CCCC5)OC [AZ3146] + Cc1nc(Nc2ncc(C(=O)Nc3c(C)cccc3Cl)s2)cc(N2CCN(CCO)CC2)n1 [Dasatinib] (partner 0.075 µM)
Procedure, shortened: (§1)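 Relative viability was taken as the ratio of nuclei in treated wells to nuclei in vehicle wells. Lung cancer cell lines in 1536-well plates received compounds by pin tool one day after seeding, either one drug alone or a fixed anchor-drug dose plus five library-drug doses (not always all listed) in √10 steps. Nuclei were counted on 4× images after 5 days of treatment, and values are medians of duplicate plates.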

GSK-J4 + Navitoclax = compound: CCOC(=O)CCNc1cc(N2CCc3ccccc3CC2)nc(-c2ccccn2)n1 [GSK-J4] + CC1(C)CCC(c2ccc(Cl)cc2)=C(CN2CCN(c3ccc(C(=O)NS(=O)(=O)c4ccc(N[C@H](CCN5CCOCC5)CSc5ccccc5)c(S(=O)(=O)C(F)(F)F)c4)cc3)CC2)C1 [Navitoclax] (partner 0.5 µM)
Procedure, shortened: as §1

GSK-J4 + Lapatinib = compound: CCOC(=O)CCNc1cc(N2CCc3ccccc3CC2)nc(-c2ccccn2)n1 [GSK-J4] + CS(=O)(=O)CCNCc1ccc(-c2ccc3ncnc(Nc4ccc(OCc5cccc(F)c5)c(Cl)c4)c3c2)o1 [Lapatinib] (partner 2 µM)
Procedure, shortened: as §1

AZ3146 + Luminespib = compound: CN1CCC(CC1)OC2=CC(=C(C=C2)NC3=NC=C4C(=N3)N(C(=O)N4C)C5CCCC5)OC [AZ3146] + CCNC(=O)c1noc(-c2cc(C(C)C)c(O)cc2O)c1-c1ccc(CN2CCOCC2)cc1 [Luminespib] (partner 0.01 µM)
Procedure, shortened: as §1

| Cell Line | relative viability (AZ3146 + Dasatinib; first compound 0.08 µM) | relative viability (AZ3146 + Dasatinib; first compound 0.253 µM) | relative viability (AZ3146 + Dasatinib; first compound 0.8 µM) | relative viability (AZ3146 + Dasatinib; first compound 2.53 µM) | relative viability (AZ3146 + Dasatinib; first compound 8 µM) | relative viability (GSK-J4 + Navitoclax; first compound 0.5 µM) | relative viability (GSK-J4 + Navitoclax; first compound 1.581 µM) | relative viability (GSK-J4 + Navitoclax; first compound 5 µM) | relative viability (GSK-J4 + Navitoclax; first compound 15.81 µM) | relative viability (GSK-J4 + Navitoclax; first compound 50 µM) | relative viability (GSK-J4 + Lapatinib; first compound 0.5 µM) | relative viability (GSK-J4 + Lapatinib; first compound 1.581 µM) | relative viability (GSK-J4 + Lapatinib; first compound 5 µM) | relative viability (GSK-J4 + Lapatinib; first compound 15.81 µM) | relative viability (GSK-J4 + Lapatinib; first compound 50 µM) | relative viability (AZ3146 + Luminespib; first compound 0.08 µM) | relative viability (AZ3146 + Luminespib; first compound 0.253 µM) | relative viability (AZ3146 + Luminespib; first compound 0.8 µM) | relative viability (AZ3146 + Luminespib; first compound 2.53 µM) | relative viability (AZ3146 + Luminespib; first compound 8 µM) |
| --- | --- | --- | --- | --- | --- | --- | --- | --- | --- | --- | --- | --- | --- | --- | --- | --- | --- | --- | --- | --- |
| EKVX | 0.434 | 0.572 | 0.5 | 0.565 | 0.535 | 0.871 | 0.874 | 1.12 | 0.834 | 0.951 | 0.216 | 0.205 | 0.261 | 0.197 | 0.171 | 0.836 | 0.842 | 0.838 | 0.981 | 0.899 |
| HCC-78 | 0.254 | 0.304 | 0.309 | 0.354 | 0.315 | 0.779 | 0.681 | 1.01 | – | 0.689 | 0.707 | 0.684 | 0.846 | – | 0.738 | – | – | – | – | – |
| A-427 | 0.561 | 0.775 | 0.651 | 0.828 | 0.66 | 0.951 | – | 0.925 | 0.906 | 0.782 | 1.05 | – | 0.913 | 0.976 | 0.847 | 0.819 | 0.895 | 0.913 | 0.879 | 0.818 |
| NCI-H3122 | 0.878 | 0.816 | 0.859 | 0.817 | 0.752 | 1.02 | 1 | 1.02 | 1.04 | 0.973 | 0.966 | 0.989 | 1 | 0.964 | 0.911 | 0.12 | 0.113 | 0.108 | 0.111 | 0.0978 |

Reference: the supplement of paper PMC10307832
